According to publication PMC8119466, “A screen of FDA-approved drugs identifies inhibitors of protein tyrosine phosphatase 4A3 (PTP4A3 or PRL-3)” (Scientific Reports, 2021):
Counter-ions that a name gives are not always drawn. Like-named read-outs stand apart in the source and are kept apart here.

What was measured:
Format in all cases: biochemical
[1] = molecular target: T1, recombinant PRL-2 (Homo sapiens, UniProt Q12974); assay: In vitro phosphatase assay (DiFMUP hydrolysis), PRL-2;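 also: PRL-2 activity read as DiFMUP hydrolysis after 20 min at room temperature with drug, enzyme first pre-reduced at 4 °C for 20 min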
T1 construct: 6xHis (N, cleaved yes); made in house; host or cells: E. coli One Shot BL21 Star
T1 sequence (Q12974 1-167): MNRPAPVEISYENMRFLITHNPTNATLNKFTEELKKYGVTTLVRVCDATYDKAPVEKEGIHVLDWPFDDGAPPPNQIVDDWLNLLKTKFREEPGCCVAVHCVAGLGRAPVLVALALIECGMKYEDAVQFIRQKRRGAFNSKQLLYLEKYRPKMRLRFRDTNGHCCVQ

[2] = molecular target: T2, recombinant PRL-3 (Homo sapiens, UniProt O75365); assay: In vitro phosphatase assay (DiFMUP hydrolysis), PRL-3; also: test concentration or dose not given here
T2 construct: 6xHis (N, cleaved yes); made in house; host or cells: E. coli One Shot BL21 Star
T2 sequence (O75365 whole entry): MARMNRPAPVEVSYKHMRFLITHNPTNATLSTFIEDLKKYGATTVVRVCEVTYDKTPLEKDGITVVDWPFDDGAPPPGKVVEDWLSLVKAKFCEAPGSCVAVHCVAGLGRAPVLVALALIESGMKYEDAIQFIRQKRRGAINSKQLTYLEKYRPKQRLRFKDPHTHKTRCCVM

[3] = molecular target: T3, recombinant PRL-1 (Homo sapiens, UniProt Q93096); assay: In vitro phosphatase assay (DiFMUP hydrolysis), PRL-1; also: test concentration or dose not given here
T3 construct: 6xHis (N, cleaved yes); made in house; host or cells: E. coli One Shot BL21 Star
T3 sequence (Q93096 1-173): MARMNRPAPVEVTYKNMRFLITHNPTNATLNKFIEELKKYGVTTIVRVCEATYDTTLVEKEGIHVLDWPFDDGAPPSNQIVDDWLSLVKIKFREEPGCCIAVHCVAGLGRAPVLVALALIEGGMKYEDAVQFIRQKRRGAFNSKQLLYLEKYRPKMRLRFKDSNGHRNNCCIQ

[4] = FDA-approved drug screen, compared to DMSO
[5] = FDA-approved drug screen, activity compared to DMSO

Row | SMILES | % Phosphatase Activity (compared to DMSO) PRL-2 [1, 4] | % Phosphatase Activity (compared to DMSO) PRL-3 [2, 4] | % Phosphatase Activity (compared to DMSO) PRL-1 [3, 4] | also measured
1 | CCOC(=O)C1=C(COCCN)NC(C)=C(C(=O)OC)C1c1ccccc1Cl.O=S(=O)(O)c1ccccc1 (stereo not drawn) [Amlodipine besylate (Norvasc)] | 174% | 168% | 152% | –
2 | O=c1[nH]c(=O)c2ccccc2o1 [Carsalam] | 95% | 80% | 96% | –
3 | OC[C@H]1O[C@@H](O[C@@H]2[C@@H](CO)OC(O)(CO)[C@H]2O)[C@H](O)[C@@H](O)[C@H]1O (mixture of isomers) [Lactulose] | 115% | 85% | 104% | –
4 | CCS(=O)(=O)N1CCN(c2ccc(Nc3ncc(C(N)=O)c(NC4CC4)n3)cc2)CC1 [Cerdulatinib (PRT062070, PRT2070)] | 82% | 95% | 95% | –
5 | Oc1cc(Cl)ccc1Oc1ccc(Cl)cc1Cl [Triclosan] | – | – | – | % Phosphatase Activity (compared to DMSO) PRL-2 [1, 5]: 106%; % Phosphatase Activity (compared to DMSO) PRL-3 [2, 5]: 96%; % Phosphatase Activity (compared to DMSO) PRL-1 [3, 5]: 100%
6 | CN1C(C(=O)Nc2ccccn2)=C(O)c2ccccc2S1(=O)=O [Piroxicam] | 76% | 70% | 88% | –
7 | COC(=O)CCc1ccc(OCC(O)CNC(C)C)cc1 (stereo not drawn) [Esmolol HCl] | 101% | 73% | 93% | –
8 | CC(=O)O[C@]1(C(C)=O)CC[C@H]2[C@@H]3C[C@H](C)C4=CC(=O)CC[C@]4(C)[C@H]3CC[C@@]21C [Medroxyprogesterone acetate] | 89% | 85% | 89% | –
9 | O=C(/C=C/C=C/c1ccc2c(c1)OCO2)N1CCCCC1 [Piperine] | 119% | 106% | 125% | –
10 | Cl.c1ccc2c(c1)CCCC2C1=NCCN1 (stereo not drawn) [Tetrahydrozoline HCl] | – | – | – | % Phosphatase Activity (compared to DMSO) PRL-2 [1, 5]: 109%; % Phosphatase Activity (compared to DMSO) PRL-3 [2, 5]: 58%; % Phosphatase Activity (compared to DMSO) PRL-1 [3, 5]: 111%
11 | CN(C)C(=N)N=C(N)N [Metformin HCl] | 78% | 87% | 102% | –
12 | NC(=O)CN1CCCC1=O [Piracetam] | 96% | 83% | 98% | –
13 | CC(=O)O[C@H]1Cc2ccccc2N(C(N)=O)c2ccccc21 [Eslicarbazepine Acetate] | 117% | 75% | 94% | –
14 | COCCOC(=O)C1=C(C)NC(C)=C(C(=O)OC(C)C)C1c1cccc([N+](=O)[O-])c1 (stereo not drawn) [Nimodipine] | 72% | 88% | 76% | –
15 | CC1CCc2c(N3CCC(O)CC3)c(F)cc3c(=O)c(C(=O)O)cn1c23 (stereo not drawn) [Nadifloxacin] | 108% | 86% | 133% | –
16 | CC1COc2c(N3CCN(C)CC3)c(F)cc3c(=O)c(C(=O)O)cn1c23 (stereo not drawn) [Ofloxacin] | 271% | 134% | 301% | –
17 | CC[C@]1(O)C[C@@H]2CN(CCc3c([nH]c4ccccc34)[C@@](C(=O)OC)(c3cc4c(cc3OC)N(C)[C@H]3[C@@](O)(C(=O)OC)[C@H](OC(C)=O)[C@]5(CC)C=CCN6CC[C@]43[C@@H]65)C2)C1 [Vinblastine sulfate] | – | – | – | % Phosphatase Activity (compared to DMSO) PRL-2 [1, 5]: 95%; % Phosphatase Activity (compared to DMSO) PRL-3 [2, 5]: 91%; % Phosphatase Activity (compared to DMSO) PRL-1 [3, 5]: 92%
18 | NCCC(O)(P(=O)([O-])O)P(=O)([O-])O.[Na+].[Na+] [Pamidronate Disodium] | 80% | 91% | 98% | –
19 | CC(C)OC(=O)[C@H](C)N[P@](=O)(CO[C@H](C)Cn1cnc2c(N)ncnc21)Oc1ccccc1 [Tenofovir Alafenamide (GS-7340)] | – | – | – | % Phosphatase Activity (compared to DMSO) PRL-2 [1]: 74%; % Phosphatase Activity (compared to DMSO) PRL-3 [2]: 91%; % Phosphatase Activity (compared to DMSO) PRL-1 [3]: 94%

Row | SMILES | % Phosphatase Activity (compared to DMSO) PRL-2 [1, 4] | % Phosphatase Activity (compared to DMSO) PRL-3 [2, 4] | % Phosphatase Activity (compared to DMSO) PRL-1 [3, 4] | also measured
20 | Cc1nc2c([nH]1)-c1ccccc1N(C(=O)c1ccc(NC(=O)c3ccccc3-c3ccccc3)cc1)CC2.Cl [Conivaptan HCl] | 106% | 85% | 95% | –
21 | Cn1c(=O)c2c(ncn2CC2OCCO2)n(C)c1=O [Doxofylline] | 109% | 79% | 103% | –
22 | CCCc1nn(C)c2c(=O)[nH]c(-c3cc(S(=O)(=O)N4CCN(C)CC4)ccc3OCC)nc12 [Sildenafil Citrate] | – | – | – | % Phosphatase Activity (compared to DMSO) PRL-2 [1, 5]: 88%; % Phosphatase Activity (compared to DMSO) PRL-3 [2, 5]: 84%; % Phosphatase Activity (compared to DMSO) PRL-1 [3, 5]: 100%
23 | CCCCC1C(=O)N(c2ccccc2)N(c2ccccc2)C1=O [Phenylbutazone] | 84% | 81% | 104% | –
24 | CN1CCN(C(c2ccccc2)c2ccccc2)CC1.Cl.Cl [Cyclizine 2HCl] | 116% | 69% | 94% | –
25 | C#CCC(Cc1cnc2nc(N)nc(N)c2n1)c1ccc(C(=O)N[C@@H](CCC(=O)O)C(=O)O)cc1 (stereo partly drawn) [Pralatrexate] | 1210% | 875% | 1180% | –
26 | O=C1c2c(O)ccc(O)c2C(=O)c2c(NCCNCCO)ccc(NCCNCCO)c21 [Mitoxantrone HCl] | 76% | 61% | 74% | –
27 | COc1c(C)c2c(c(O)c1C/C=C(\C)CCC(=O)OCCN1CCOCC1)C(=O)OC2 [Mycophenolate Mofetil] | 125% | 102% | 131% | –
28 | COc1cc2nccc(Oc3ccc(NC(=O)Nc4cc(C)on4)c(Cl)c3)c2cc1OC [Tivozanib (AV-951)] | – | – | – | % Phosphatase Activity (compared to DMSO) PRL-2 [1, 5]: 101%; % Phosphatase Activity (compared to DMSO) PRL-3 [2, 5]: 75%; % Phosphatase Activity (compared to DMSO) PRL-1 [3, 5]: 107%
29 | CS(=O)(=O)CCNCc1ccc(-c2ccc3ncnc(Nc4ccc(OCc5cccc(F)c5)c(Cl)c4)c3c2)o1 [Lapatinib] | – | – | – | % Phosphatase Activity (compared to DMSO) PRL-2 [1]: 207%; % Phosphatase Activity (compared to DMSO) PRL-3 [2]: 121%; % Phosphatase Activity (compared to DMSO) PRL-1 [3]: 207%
30 | Cc1ccc(NC(=O)C2(c3ccc4c(c3)OC(F)(F)O4)CC2)nc1-c1cccc(C(=O)O)c1 [VX-809 (Lumacaftor)] | – | – | – | % Phosphatase Activity (compared to DMSO) PRL-2 [1, 5]: 96%; % Phosphatase Activity (compared to DMSO) PRL-3 [2, 5]: 90%; % Phosphatase Activity (compared to DMSO) PRL-1 [3, 5]: 112%
31 | CCOc1ccccc1OC(c1ccccc1)C1CNCCO1.CS(=O)(=O)O (stereo not drawn) [Reboxetine mesylate] | 118% | 99% | 125% | –
32 | OC(c1ccccc1)(c1ccccc1)C1CCNCC1 [Azacyclonol] | 127% | 96% | 109% | –
33 | Cl.O=C1Cc2cc(CCN3CCN(c4nsc5ccccc45)CC3)c(Cl)cc2N1 [Ziprasidone HCl] | – | – | – | % Phosphatase Activity (compared to DMSO) PRL-2 [1, 5]: 91%; % Phosphatase Activity (compared to DMSO) PRL-3 [2, 5]: 80%; % Phosphatase Activity (compared to DMSO) PRL-1 [3, 5]: 91%
34 | O=C(O)Cc1ccccc1Nc1c(Cl)cccc1Cl [Diclofenac Diethylamine] | 140% | 97% | 119% | –
35 | O=C(NC[C@H]1CN(c2ccc(N3CCOCC3=O)cc2)C(=O)O1)c1ccc(Cl)s1 [Rivaroxaban] | 106% | 92% | 98% | –
36 | CNC(=O)c1ccc2cc([C@@]3(O)CCn4cncc43)ccc2c1 [TAK-700 (Orteronel)] | – | – | – | % Phosphatase Activity (compared to DMSO) PRL-2 [1, 5]: 107%; % Phosphatase Activity (compared to DMSO) PRL-3 [2, 5]: 87%; % Phosphatase Activity (compared to DMSO) PRL-1 [3, 5]: 128%
37 | Cc1cc(Nc2cc(N3CCN(C)CC3)nc(Sc3ccc(NC(=O)C4CC4)cc3)n2)n[nH]1 [VX-680 (Tozasertib, MK-0457)] | – | – | – | % Phosphatase Activity (compared to DMSO) PRL-2 [1, 5]: 87%; % Phosphatase Activity (compared to DMSO) PRL-3 [2, 5]: 82%; % Phosphatase Activity (compared to DMSO) PRL-1 [3, 5]: 89%
38 | COC(=O)C1=C(C)NC(C)=C(C(=O)O[C@@H]2CCCN(Cc3ccccc3)C2)[C@@H]1c1cccc([N+](=O)[O-])c1.Cl (racemic) [Benidipine HCl] | 107% | 94% | 91% | –
